# Laboratory results as given in PMC4144829 (Nature chemical biology, 2014).
# Where two headings read alike, the source gives them in different places.
# Columns and labels:
# human USP1-UAF1 = conditions: cited from earlier work
# H596 cells [1] = assay: cellular activity assay of USP1-UAF1; format: cell-based, human; conditions: for change in levels of Ub-PCNA and Ub-FANCD2: H596, 6 h, cisplatin 100 μM, ML323 30 μM
# H596 cells [2] = assay: colony-forming assay; format: cell-based, human
# H596 cells [3] = assay: cell cycle analysis; format: cell-based, human
# U2OS cells [4] = assay: FANCD2 subnuclear foci formation; format: cell-based, human; conditions: ML323 30 μM, cisplatin 5 μM, vehicle 13.1%
# U2OS cells [5] = assay: SCE assay; format: cell-based, human; conditions: ML323 30 μM, cisplatin 15 μM, control 0.12
# PD20 + D2 cells [6] = assay: cytotoxicity assay; conditions: PD20 + D2, cisplatin alone
# H460 cell line = assay: colony-forming assay; conditions: read-out: EC50 of cell killing; cisplatin-sensitive NSCLC H460
# USP1-UAF1 [7] = target: T1, USP1-UAF1 (Homo sapiens, UniProt O94782); assay: inhibition mechanism determination; format: biochemical
# T1 sequence (O94782 whole entry): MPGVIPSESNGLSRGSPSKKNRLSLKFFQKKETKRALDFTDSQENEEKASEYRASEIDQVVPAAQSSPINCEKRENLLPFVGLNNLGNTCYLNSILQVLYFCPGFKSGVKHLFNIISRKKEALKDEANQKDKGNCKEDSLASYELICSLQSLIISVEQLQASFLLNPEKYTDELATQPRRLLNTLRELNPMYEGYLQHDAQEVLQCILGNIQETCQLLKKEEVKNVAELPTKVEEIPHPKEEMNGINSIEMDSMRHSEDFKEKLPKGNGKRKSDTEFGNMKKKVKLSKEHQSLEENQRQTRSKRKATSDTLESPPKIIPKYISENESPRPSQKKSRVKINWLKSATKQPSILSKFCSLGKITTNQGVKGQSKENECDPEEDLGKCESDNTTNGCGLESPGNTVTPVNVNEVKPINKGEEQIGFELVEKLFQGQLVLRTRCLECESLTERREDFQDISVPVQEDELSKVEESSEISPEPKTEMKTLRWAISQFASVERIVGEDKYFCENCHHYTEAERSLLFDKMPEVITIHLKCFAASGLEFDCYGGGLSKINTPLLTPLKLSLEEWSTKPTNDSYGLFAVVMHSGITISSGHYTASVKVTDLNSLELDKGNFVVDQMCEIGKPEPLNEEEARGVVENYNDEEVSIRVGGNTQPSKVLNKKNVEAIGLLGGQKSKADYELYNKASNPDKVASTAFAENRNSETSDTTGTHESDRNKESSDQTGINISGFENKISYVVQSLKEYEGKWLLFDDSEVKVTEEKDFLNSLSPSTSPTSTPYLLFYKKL
# T1 sequence (Q8TAF3 whole entry partner): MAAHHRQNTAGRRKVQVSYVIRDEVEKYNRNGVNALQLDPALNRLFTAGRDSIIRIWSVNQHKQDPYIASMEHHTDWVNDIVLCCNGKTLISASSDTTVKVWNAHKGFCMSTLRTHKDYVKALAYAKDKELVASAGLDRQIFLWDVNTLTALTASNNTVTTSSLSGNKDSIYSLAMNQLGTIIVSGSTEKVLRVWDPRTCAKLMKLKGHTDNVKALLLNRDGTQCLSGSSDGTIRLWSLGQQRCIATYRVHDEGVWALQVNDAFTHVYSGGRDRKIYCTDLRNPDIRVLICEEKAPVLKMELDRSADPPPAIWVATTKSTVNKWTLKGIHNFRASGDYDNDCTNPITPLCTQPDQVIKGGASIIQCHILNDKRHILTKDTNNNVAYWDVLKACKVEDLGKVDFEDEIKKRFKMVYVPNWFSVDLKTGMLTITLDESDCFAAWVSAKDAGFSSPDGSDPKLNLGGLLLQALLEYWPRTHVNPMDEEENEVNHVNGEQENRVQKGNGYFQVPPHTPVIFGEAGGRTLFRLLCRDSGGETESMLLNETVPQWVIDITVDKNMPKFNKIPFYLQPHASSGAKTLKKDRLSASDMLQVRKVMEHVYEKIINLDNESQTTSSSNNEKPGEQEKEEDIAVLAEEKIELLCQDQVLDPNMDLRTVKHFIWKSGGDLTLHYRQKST
# USP1-UAF1 [8] = target: T1, USP1-UAF1; assay: reversibility; format: biochemical; conditions: 100-fold dilution after treatment at ten times the IC50 for 15, 30 and 60 min
# USP1-UAF1 [9] = target: T1, USP1-UAF1; assay: native gel electrophoresis of USP1-UAF1 complex; conditions: up to 100 times its IC50
# USP2 = USP2 (Homo sapiens, UniProt O75604); assay: in vitro DUB selectivity; format: biochemical
# USP2, sequence (O75604 259-605): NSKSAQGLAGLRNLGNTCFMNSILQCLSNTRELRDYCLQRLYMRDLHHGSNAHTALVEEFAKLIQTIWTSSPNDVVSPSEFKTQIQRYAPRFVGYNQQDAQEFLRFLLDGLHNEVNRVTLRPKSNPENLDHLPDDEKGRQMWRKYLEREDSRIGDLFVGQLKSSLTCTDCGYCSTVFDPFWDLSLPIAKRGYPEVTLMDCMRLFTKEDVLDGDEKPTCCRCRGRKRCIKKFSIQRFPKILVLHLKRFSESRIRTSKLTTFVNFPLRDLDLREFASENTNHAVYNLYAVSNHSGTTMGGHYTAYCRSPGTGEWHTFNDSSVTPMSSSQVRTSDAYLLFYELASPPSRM
# USP5 = USP5 (Homo sapiens, UniProt P45974); assay: in vitro DUB selectivity; format: biochemical
# USP8 = USP8 (Homo sapiens, UniProt P40818); assay: in vitro DUB selectivity; format: biochemical
# USP11 = USP11 (Homo sapiens, UniProt P51784); assay: in vitro DUB selectivity; format: biochemical
# USP11, sequence (P51784 whole entry): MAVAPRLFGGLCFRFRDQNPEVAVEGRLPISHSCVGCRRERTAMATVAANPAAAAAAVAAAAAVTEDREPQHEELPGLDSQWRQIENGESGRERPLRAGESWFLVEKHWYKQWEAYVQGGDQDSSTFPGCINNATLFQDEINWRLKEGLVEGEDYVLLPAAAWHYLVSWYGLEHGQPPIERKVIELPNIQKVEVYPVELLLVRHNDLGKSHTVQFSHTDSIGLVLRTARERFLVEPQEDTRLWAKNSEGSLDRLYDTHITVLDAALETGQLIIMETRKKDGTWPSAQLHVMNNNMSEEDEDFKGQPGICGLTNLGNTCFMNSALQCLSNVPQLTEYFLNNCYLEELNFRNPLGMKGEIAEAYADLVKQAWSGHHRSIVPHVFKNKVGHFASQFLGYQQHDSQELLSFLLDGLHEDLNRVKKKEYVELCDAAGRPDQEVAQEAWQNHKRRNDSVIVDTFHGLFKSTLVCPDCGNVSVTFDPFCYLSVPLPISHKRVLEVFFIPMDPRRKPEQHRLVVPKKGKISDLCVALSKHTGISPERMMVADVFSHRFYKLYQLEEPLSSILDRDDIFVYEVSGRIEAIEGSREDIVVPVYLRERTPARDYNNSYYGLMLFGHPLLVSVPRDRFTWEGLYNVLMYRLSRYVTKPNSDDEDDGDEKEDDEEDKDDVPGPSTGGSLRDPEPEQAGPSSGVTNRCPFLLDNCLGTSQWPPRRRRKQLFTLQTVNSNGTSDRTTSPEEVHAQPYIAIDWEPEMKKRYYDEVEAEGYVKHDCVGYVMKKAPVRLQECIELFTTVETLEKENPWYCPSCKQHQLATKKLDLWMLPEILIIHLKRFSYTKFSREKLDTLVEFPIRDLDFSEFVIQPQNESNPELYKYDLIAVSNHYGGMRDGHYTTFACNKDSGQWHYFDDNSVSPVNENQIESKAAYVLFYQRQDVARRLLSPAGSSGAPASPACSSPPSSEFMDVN
# USP21 = USP21 (Homo sapiens, UniProt Q9UK80); assay: in vitro DUB selectivity; format: biochemical
# USP21, sequence (Q9UK80 209-563): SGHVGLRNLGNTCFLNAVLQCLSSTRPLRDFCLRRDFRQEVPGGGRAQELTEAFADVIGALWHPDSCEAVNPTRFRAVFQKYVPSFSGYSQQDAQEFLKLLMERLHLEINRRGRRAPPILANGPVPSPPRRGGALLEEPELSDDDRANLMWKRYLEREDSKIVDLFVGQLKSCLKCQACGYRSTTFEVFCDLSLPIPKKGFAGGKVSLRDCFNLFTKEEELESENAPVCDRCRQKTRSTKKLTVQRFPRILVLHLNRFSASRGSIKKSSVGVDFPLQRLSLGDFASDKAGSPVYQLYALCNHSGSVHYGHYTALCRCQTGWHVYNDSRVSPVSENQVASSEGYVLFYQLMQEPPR
# USP46-UAF1 = USP46-UAF1 (Homo sapiens, UniProt P62068); assay: in vitro DUB selectivity; format: biochemical
# SENP1 = SENP1 (Homo sapiens, UniProt Q9P0U3); assay: in vitro deSUMOylase selectivity; format: biochemical
# SENP1, sequence (Q9P0U3 whole entry): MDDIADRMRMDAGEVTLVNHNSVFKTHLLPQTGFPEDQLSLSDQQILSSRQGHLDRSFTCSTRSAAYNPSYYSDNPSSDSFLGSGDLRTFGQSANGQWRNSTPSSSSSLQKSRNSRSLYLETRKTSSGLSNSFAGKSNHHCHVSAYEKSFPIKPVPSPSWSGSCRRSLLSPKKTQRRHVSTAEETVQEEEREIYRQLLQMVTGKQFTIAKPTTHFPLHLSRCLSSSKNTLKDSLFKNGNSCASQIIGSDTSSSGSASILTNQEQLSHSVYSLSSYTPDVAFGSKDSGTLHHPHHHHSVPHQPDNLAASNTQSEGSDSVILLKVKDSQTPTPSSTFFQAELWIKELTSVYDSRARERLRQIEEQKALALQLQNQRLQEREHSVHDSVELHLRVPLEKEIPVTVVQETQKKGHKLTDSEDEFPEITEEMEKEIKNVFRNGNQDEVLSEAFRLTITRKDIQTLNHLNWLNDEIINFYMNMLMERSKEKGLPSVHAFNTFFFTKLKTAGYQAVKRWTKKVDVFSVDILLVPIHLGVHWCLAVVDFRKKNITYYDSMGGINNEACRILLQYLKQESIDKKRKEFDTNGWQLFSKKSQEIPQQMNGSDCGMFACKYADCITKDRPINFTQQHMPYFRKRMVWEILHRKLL
# NEDP1 = NEDP1 (Homo sapiens, UniProt Q96LD8); assay: in vitro deneddylase selectivity; format: biochemical
# NEDP1, sequence (Q96LD8 whole entry): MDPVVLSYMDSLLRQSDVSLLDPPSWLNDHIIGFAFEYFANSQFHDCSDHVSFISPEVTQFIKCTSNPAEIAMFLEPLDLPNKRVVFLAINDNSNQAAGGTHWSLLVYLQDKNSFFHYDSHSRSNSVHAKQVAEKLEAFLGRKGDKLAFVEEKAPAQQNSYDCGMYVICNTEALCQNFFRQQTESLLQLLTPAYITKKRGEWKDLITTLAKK
# 451 kinases = assay: in vitro kinase profiling; format: biochemical
# USP1-UAF1 [10] = target: T1, USP1-UAF1; assay: HA-Ub-VME labeling of purified USP1-UAF1; conditions: biochemical assay
# USP1 in HEK293T cells = USP1 in HEK293T cells (Homo sapiens, UniProt O94782); assay: cellular activity-based DUB profiling with HA-Ub-VME; format: cell-based; conditions: 100 μM cisplatin, ML323 0.5 to 50 μM
# USP1 in HEK293T cells, sequence (O94782 whole entry): as the sequence (O94782 whole entry) above
# USP1 in HEK293T cells, sequence (Q8TAF3 whole entry partner): as the sequence (Q8TAF3 whole entry partner) above
# [11] = system: USP8, USP7, CYLD, USP5, USP14, UCH-L3 and UCH-L1 in HEK293T cells; assay: as above; format: cell-based, human; conditions: 100 μM cisplatin, ML323 0.5 to 50 μM
# [12] = system: USP1 shRNA knockdown H596 cells; assay: cellular Ub-PCNA level in USP1 shRNA knockdown cells; format: cell-based, human
# [13] = system: USP1 shRNA knockout H596 cell strain; assay: colony-forming assay in USP1 shRNA cells; format: cell-based, human
# XPV cells = assay: UV sensitivity colony-forming assay; format: cell-based, human; conditions: 20 μM ML323
# PD20 cells = assay: UV sensitivity colony-forming assay; format: cell-based, human; conditions: 20 μM ML323
# PD20 + D2 cells [14] = assay: UV sensitivity colony-forming assay; format: cell-based, human; conditions: with ML323
# DR-U2OS cells = assay: HR assay; format: cell-based, human; conditions: 30 μM ML323, 2.56% in the absence of ML323
# [15] = system: DUBs in the UCH, OTU and MJD families; assay: in vitro DUB profiling
# USP10 = USP10 (Homo sapiens, UniProt Q14694); assay: in vitro DUB selectivity
# USP10, sequence (Q14694 whole entry): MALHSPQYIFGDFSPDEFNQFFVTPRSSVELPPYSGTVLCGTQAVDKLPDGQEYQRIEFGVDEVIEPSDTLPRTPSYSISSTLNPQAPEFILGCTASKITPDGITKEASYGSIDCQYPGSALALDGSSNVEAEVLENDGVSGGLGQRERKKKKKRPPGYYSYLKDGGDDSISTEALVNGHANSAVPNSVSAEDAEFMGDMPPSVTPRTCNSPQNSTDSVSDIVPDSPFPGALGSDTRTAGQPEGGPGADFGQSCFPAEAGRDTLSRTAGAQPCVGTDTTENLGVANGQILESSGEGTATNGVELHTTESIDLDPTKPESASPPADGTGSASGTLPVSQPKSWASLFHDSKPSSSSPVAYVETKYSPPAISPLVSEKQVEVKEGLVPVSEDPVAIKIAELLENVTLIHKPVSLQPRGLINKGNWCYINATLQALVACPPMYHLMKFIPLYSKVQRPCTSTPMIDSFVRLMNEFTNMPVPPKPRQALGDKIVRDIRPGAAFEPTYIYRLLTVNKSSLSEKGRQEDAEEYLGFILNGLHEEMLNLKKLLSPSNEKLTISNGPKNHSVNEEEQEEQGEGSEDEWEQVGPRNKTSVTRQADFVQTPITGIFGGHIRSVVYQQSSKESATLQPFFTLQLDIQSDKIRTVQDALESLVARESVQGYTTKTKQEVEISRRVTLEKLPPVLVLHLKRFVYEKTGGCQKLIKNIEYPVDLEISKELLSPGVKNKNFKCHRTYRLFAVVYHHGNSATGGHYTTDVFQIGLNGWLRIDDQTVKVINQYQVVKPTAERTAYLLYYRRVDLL
# USP14 = USP14 (Homo sapiens, UniProt P54578); assay: in vitro DUB selectivity
# 70 unrelated proteases = assay: in vitro protease profiling
# XPV + Polη cells = assay: UV sensitivity colony-forming assay; conditions: 20 μM ML323
structure (smiles),measurement,setting,value
CC(C)(Sc1ccc(CCN(CCCCC2CCCCC2)C(=O)NC2CCCCC2)cc1)C(=O)O [GW7647],affinity as inhibitor of human USP1-UAF1,human USP1-UAF1,low micromolar
"N.N.[Cl][Pt][Cl] [cisplatin, reference compound]",change in levels of Ub-PCNA and Ub-FANCD2,H596 cells [1],small increase
same,EC50,"H596 cells [2]; read-out: EC50 of cell killing, H596, single agent",486 nM
same,population of cells in S phase,"H596 cells [3]; H596, cisplatin 5 μM, ML323 20 μM",45%
same,FANCD2 subnuclear foci formation,U2OS cells [4],59.4%
same,SCE events per chromosome,U2OS cells [5],0.99 SCE events per chromosome
same,EC50,PD20 + D2 cells [6],12300 nM
same,EC50,H460 cell line,74 nM
O=c1[nH]c2ccccc2n1C1CCN(CCCC(c2ccc(F)cc2)c2ccc(F)cc2)CC1 [pimozide],affinity as inhibitor of human USP1-UAF1,human USP1-UAF1,low micromolar
Cc1cnc(-c2ccccc2C(C)C)nc1NCc1ccc(-n2ccnn2)cc1 [ML323],inhibition mechanism,"USP1-UAF1 [7]; Lineweaver-Burk, di-Ub cleavage",mixed inhibition mechanism
same,inhibition constant for the enzyme-substrate complex (K'i),USP1-UAF1 [7]; mixed inhibition,183 nM
same,reversibility of inhibition,USP1-UAF1 [8],reversible inhibitor
same,disruption of the USP1-UAF1 complex,USP1-UAF1 [9],ruled out the possibility that ML323 acts as a disruptor of the USP1-UAF1 complex
same,inhibition of USP2,USP2,little to no inhibition
same,inhibition of USP5,USP5,little to no inhibition
same,inhibition of USP8,USP8,little to no inhibition
same,inhibition of USP11,USP11,little to no inhibition
same,inhibition of USP21,USP21,little to no inhibition
same,inhibition of USP46-UAF1,USP46-UAF1,did not inhibit
same,inhibition of SENP1,SENP1,did not inhibit
same,inhibition of NEDP1,NEDP1,did not inhibit
same,inhibition of kinases,451 kinases,no substantial inhibition
same,labeling of USP1-UAF1 by HA-Ub-VME,USP1-UAF1 [10],inhibited the labeling of USP1-UAF1 by HA-Ub-VME
same,labeling of cellular USP1 by HA-Ub-VME,USP1 in HEK293T cells,clear decrease in the intensity of the labeled USP1 band
same,labeling of other cellular DUBs by HA-Ub-VME,[11],did not inhibit the labeling of the DUBs tested
same,change in levels of Ub-PCNA and Ub-FANCD2,H596 cells [1],increase in the monoubiquitination of PCNA and FANCD2 was also observed
same,time to effect on PCNA ubiquitination after treatment,"H596 cells [1]; H596, ML323 alone or in combination with cisplatin",3 to 6 h
same,level of Ub-H2A,"H596 cells [1]; H596, ML323 alone or with cisplatin",did not affect the level of Ub-H2A
same,concentration at which increase in Ub-PCNA level is seen,"H596 cells [1]; H596, absence or presence of cisplatin, 6 h",≥ 5 µM
same,"Ub-PCNA level, cisplatin vs combination of ML323 and cisplatin",[12],little difference in Ub-PCNA levels
same,EC50,"H596 cells [2]; Homo sapiens, NCI-H596, read-out: EC50 of cell killing",> 10000 nM
same,sensitization to cisplatin,[13],no further sensitization to cisplatin
same,cell cycle delay or arrest,"H596 cells [3]; H596, ML323 alone 20 μM",did not result in cell cycle delay or arrest
same,LD50 of UV sensitivity,XPV cells,3.2 J m^−2
same,LD50 of UV sensitivity,PD20 cells,2.8 J m^−2
same,LD50 of UV sensitivity,PD20 + D2 cells [14],3.4 J m^−2
same,FANCD2 subnuclear foci formation,U2OS cells [4],no substantial change
same,I-SceI-induced HR frequency,DR-U2OS cells,0.81%
same,SCE events per chromosome,U2OS cells [5],0.13 SCE events per chromosome
same,"inhibition of DUBs of UCH, OTU and MJD families",[15],little to no inhibition
same,inhibition of USP10,USP10,little to no inhibition
same,inhibition of USP14,USP14,little to no inhibition
same,inhibition of other proteases,70 unrelated proteases,no substantial inhibition
same,LD50 of UV sensitivity,XPV + Polη cells,4.7 J m^−2
same,decrease of UV LD50 vs UV treatment alone,XPV + Polη cells,42%
